Data as given in US4232160A, “Isoquinoline propionamides exhibiting analgesic properties” (Miles Laboratories, Inc., priority 1978, dated 1980).
Counter-ions that a name gives are not always drawn.

Test system: male CD-1 mice
Assay: acetic acid induced writhing test (analgesic activity, subcutaneous)
Assay type: in vivo
Settings: Mus musculus, sc, 0.5% acetic acid i.p. 15 min post drug, writhes counted in 20 min interval beginning 5 min after acetic acid, read-out: ED50 (dose required to reduce the number of writhes by 50%)
Procedure: The analgesic activity of the isoquinoline propionanilides prepared as described in Examples I-XIII was determined by the acetic acid induced writhing test described by Whittle et al., Brit. J. Pharmacol, 22 296 (1964). In this test at least three groups of five male CD-1 mice each were given subcutaneous doses of the test drug dissolved in either distilled water or distilled water acidified with HCl depending on solubility of the compound. In all cases 0.4 ml. of 0.5% v/v acetic acid in distilled water was administered intraperitoneal 15 minutes post drug. The number of writhes in a 20 minute interval beginning 5 minutes after the acetic acid injection were determined and compared with the number of writhes in control groups which had received only acetic acid. In two cases the ITME writhing test protocol was used which is the same as that outlined above except that the number of writhes are determined for 10 minutes after the administration of acetic acid.
Percent inhibition of writhing was calculated as: [formula]
The ED50 does, ie. the dose required to reduce the number of writhes by 50%, was determined graphically from a plot of % inhibition as a probit versus log dose. Confidence limits of 95% were calculated on the basis of those results falling in the range 16-84% inhibition. See Litchfield, J. T. and Wilcoxon, F., J Pharmacol. Exp. Ther., 96 99-113, (1949).

In order of rising ED50:
1. CCC(=O)N(CC1c2ccccc2CCN1C)c1ccc(Cl)cc1.Cl (stereo not shown) [TR-3354, N-[(1,2,3,4-Tetrahydro-2-methyl-1-isoquinolyl)methyl]N-(4-chlorophenyl)propionamide hydrochloride]  0.5 mg/kg
2. CCC(=O)N(CC1c2ccccc2CCN1C)c1ccc(C)cc1.Cl (stereo not shown) [TR-3355, N-[(1,2,3,4-Tetrahydro-2-methyl-1-isoquinolyl)methyl]-N-(4-methylphenyl)propionamide hydrochloride]  0.53 mg/kg
3. CCCCCN1CCc2ccccc2C1CN(C(=O)CC)c1ccccc1.Cl (stereo not shown) [TR-3316, N-[(1,2,3,4-Tetrahydro-2-n-pentyl-1-isoquinolyl)methyl]propionanilide hydrochloride]  1.76 mg/kg
4. CCCCCCN1CCc2ccccc2C1CN(C(=O)CC)c1ccccc1.O.O=C(O)C(=O)O (stereo not shown) [TR-3309, N-[(1,2,3,4-Tetrahydro-2-n-hexyl-1-isoquinolyl)methyl]propionanilide oxalate hydrate]  2.08 mg/kg
5. CCC(=O)N(CC1c2cc(OC)c(OC)cc2CCN1C)c1ccccc1 (stereo not shown) [TR-3426, N-[(6,7-Dimethoxy-2-methyl-1,2,3,4-tetrahydro-1-isoquinolyl)methyl]propionanilide]  4.55 mg/kg
6. CCC(=O)N(CC1c2ccccc2CCN1C)c1ccccc1.Cl (stereo not shown) [TR-3284, N-[(1,2,3,4-Tetrahydro-2-methyl-1-isoquinolyl)methyl]propionanilide hydrochloride]  7.1 mg/kg
7. CCC(=O)N(CC1c2ccccc2CCN1CC1CC1)c1ccccc1.Cl (stereo not shown) [TR-3207, N-[(1,2,3,4-Tetrahydro-2-cyclopropylmethyl-1-isoquinolyl)methyl]propionanilide hydrochloride]  7.45 mg/kg
8. CCC(=O)N(CC1c2ccccc2CCN1C)c1ccccn1 (stereo not shown) [TR-3461, N-[(2-Methyl-1,2,3,4-tetrahydro-1-isoquinolyl)methyl]-N-(2-pyridyl)priopionamide hydrochloride]  10.7 mg/kg
9. CCC(=O)N(CC1c2ccccc2CCN1Cc1ccccc1)c1ccccc1.Cl (stereo not shown) [TR-3359, N-[(1,2,3,4-Tetrahydro-2-benzyl-1-isoquinolyl)methyl]propionanilide hydrochloride]  15 mg/kg
10. CCC(=O)N(Cc1ccccc1)CC1c2ccccc2CCN1C (stereo not shown) [TR-3389, N-[(1,2,3,4-Tetrahydro-2-methyl-1-isoquinolyl)methyl]-N-benzylpropionamideoxalate]  23 mg/kg
11. CCC(=O)N(Cc1ccccc1)CC1c2ccccc2CCN1Cc1ccccc1 (stereo not shown) [TR-3388, N-[(1,2,3,4-Tetrahydro-2-benzyl-1-isoquinolyl)methyl]-N-benzylpropionamideoxalate]  33 mg/kg

Same assay, conditions: Mus musculus, sc, 10 min, *According to IMTE writhing test protocol: writhes determined for 10 minutes after acetic acid, read-out: ED50 (dose required to reduce the number of writhes by 50%)

In order of falling ED50:
1. CCC(=O)N(CC1c2ccccc2CCN1CCC(C)C)c1ccccc1.Cl (stereo not shown) [TR-3317, N-[(1,2,3,4-Tetrahydro-2-i-pentyl-1-isoquinolyl)methyl]propionanilide hydrochloride]  16.5 mg/kg
2. CCC(=O)N(CC1c2ccccc2CCN1CCc1ccccc1)c1ccccc1.Cl (stereo not shown) [TR-3280, N-[(1,2,3,4-Tetrahydro-2-phenethyl-1-isoquinolyl)methyl]propionanilide hydrochloride]  10 mg/kg
